In patent publication US4607114A, “Novel platinum complexes” (Nippon Kayaku Kabushiki Kaisha, priority 1983, dated 1986):
Like-named read-outs stand apart in the source and are kept apart here.

Columns and labels:
[1] = background statement; cited from earlier work
[2] = test system: mouse leukemia L-1210; experiment: Antitumor activity on mouse leukemia L-1210 (T/C percentage of survival); type: in vivo; details: i.p. once a day for 5 days, female CDF1 mouse
Method: (2) Test for antitumor activity on mouse leukemia L-1210.
Into 6-weeks-old female CDF1 mouse were inoculated 1×10^5 L-1210 cells, and each drug was administered intraperitoneally once a day for 5 consecutive days, starting 24 hours after the inoculation. Physiological saline was administered to a control group. From the average survival periods of the drug-treated group and the control group (abbreviated as T and C, respectively), T/C percentage (T/C×100) was determined.

[3] = Solubility in water
[4] = test system: mouse leukemia L-1210 cells; experiment: Inhibitory activity on multiplication of mouse leukemia L-1210 initially cultured cells; type: cell-based; details: 48 hours, 37° C., RPMI 1640 with 10% bovine fetal serum
Method: (1) Test for inhibitory activity on multiplication of mouse leukemia L-1210 initially cultured cells.
Mouse leukemia L-1210 cells collected from the abdominal cavities of DBA/2 mouse were incubated in a 5% CO2 incubator at 37° C. for 48 hours by using a RPMI 1640 medium containing 10% of bovine fetal serum and 5 μM of 2-mercaptoethanol.

| Compound | Antitumor effect shown by T/C percentage ([2]; 1 mg/kg) | Antitumor effect shown by T/C percentage ([2]; 2 mg/kg) | Antitumor effect shown by T/C percentage ([2]; 4 mg/kg) | Antitumor effect shown by T/C percentage ([2]; 8 mg/kg) | Solubility in water | further results |
| --- | --- | --- | --- | --- | --- | --- |
| N.N.[Cl][Pt][Cl] [cis-Platin, cis-dichlorodiammineplatinum] |  |  |  |  |  | carcinostatic effect [1]: very excellent |
| CC1(C)C[NH][Pt]([Cl])([Cl])[NH]1 [compound 1, cis-Dichloro-1,2-diamino-2-methylpropane platinum] | 133% | 171% | 206% | 124% | 5000 µg/mL | Antitumor effect shown by T/C percentage ([2]; 16 mg/kg): 51% |
| CC(C)(N)CN.[Cl][Pt]([Cl])([Cl])[Cl] [compound 3, cis-Tetrachloro-1,2-diamino-2-methylpropane platinum] | 127% | 139% | 162% | 154% | > 12000 µg/mL | Antitumor effect shown by T/C percentage ([2]; 16 mg/kg): 60% |
| CCC(C)(N)CN.[Cl][Pt][Cl] (stereo not drawn) [compound 4, cis-Dichloro-1,2-diamino-2-methylbutane platinum] |  |  |  |  | 3500 µg/mL |  |
| CCC(N)(CC)CN.O=C([O-])C(=O)[O-].[Pt+2] [compound 6, cis-Oxalato-1,2-diamino-2-ethylbutane platinum] | 130% | 152% | 226% | 206% |  | Antitumor effect shown by T/C percentage ([2]; 16 mg/kg): 211% |
| CCC(N)(CC)CN.[OH][Pt]([OH])([Cl])[Cl] [compound 7, cis-Dichloro-trans-dihydroxy-1,2-diamino-2-ethylbutane platinum] |  |  |  |  | 13000 µg/mL |  |
| CCC(N)(CC)CN.[Cl][Pt]([Cl])([Cl])[Cl] [compound 8, cis-Tetrachloro-1,2-diamino-2-ethylbutane platinum] |  |  |  |  | 5000 µg/mL |  |
| CCC1C(=O)[O][Pt]2([NH]CC(CC)(CC)[NH]2)[O]C1=O (stereo not drawn) [compound 9, cis-2-Ethylmalonato-1,2-diamino-2-ethylbutane platinum] |  |  |  |  | 25000 µg/mL |  |
| CCC(N)(CC)CN.O=C([O-])C(O)C(=O)[O-].[Pt+2] [compound 10, cis-2-Hydroxymalonato-1,2-diamino-2-ethylbutane platinum] |  |  |  |  | 16000 µg/mL |  |
| NCC1(N)CCCCC1.[OH][Pt]([OH])([Cl])[Cl] [compound 11, cis-Dichloro-trans-dihydroxy-1-amino-1-aminomethylcyclohexane platinum] |  |  | 162% | 237% | > 2000 µg/mL | Antitumor effect shown by T/C percentage ([2]; 16 mg/kg): 275%; Antitumor effect shown by T/C percentage ([2]; 32 mg/kg): 108%; Antitumor effect shown by T/C percentage ([2]; 64 mg/kg): 67% |
| NCC1(N)CCCCC1.[Cl][Pt]([Cl])([Cl])[Cl] [compound 12, cis-Tetrachloro-1-amino-1-aminomethylcyclohexane platinum] | 200% | 259% | 224% | 95% | > 15000 µg/mL | Antitumor effect shown by T/C percentage ([2]; 0.5 mg/kg): 137% |
| O=C(CCl)[O][Pt]1([O]C(=O)CCl)[NH]CC2(CCCCC2)[NH]1 [compound 15, cis-bis(Chloroacetato)-1-amino-1-aminomethylcyclohexane platinum] | 175% | 200% | 299% | 130% | > 1500 µg/mL | Antitumor effect shown by T/C percentage ([2]; 0.5 mg/kg): 135% |
| CCC(C(=O)[O-])C(=O)[O-].NCC1(N)CCCCC1.[Pt+2] [compound 17, cis-2-Ethylmalonato-1-amino-1-aminomethyl cyclohexane platinum] |  |  |  |  |  | Solubility in water [3]: 8000 µg/mL |
| NCC1(N)CCCC1.[Cl][Pt][Cl] [compound 18, cis-Dichloro-1-amino-1-aminomethylcyclopentane platinum] | 226% | 344% | 141% | 92% |  | IC50 [4]: 0.02 µg/mL; Antitumor effect shown by T/C percentage ([2]; 0.5 mg/kg): 179% |
| NCC1(N)CCCC1.[OH][Pt]([OH])([Cl])[Cl] [compound 19, cis-Dichloro-trans-dihydroxy-1-amino-1-aminomethylcyclopentane platinum] |  |  | 138% | 174% |  | IC50 [4]: 0.60 µg/mL; Antitumor effect shown by T/C percentage ([2]; 16 mg/kg): 323%; Antitumor effect shown by T/C percentage ([2]; 32 mg/kg): 113%; Antitumor effect shown by T/C percentage ([2]; 64 mg/kg): 80% |
| [Cl][Pt]1([Cl])([Cl])([Cl])[NH]CC2(CCCC2)[NH]1 [compound 20, cis-Tetrachloro-1-amino-1-aminomethyl cyclopentane platinum] |  |  |  |  | 18000 µg/mL |  |
| NCC1(N)CCCC1.O=C([O-])C(=O)[O-].[Pt+2] [compound 21, cis-Oxalato-1-amino-1-aminomethylcyclopentane platinum] | 141% | 161% | 189% | 166% |  | Antitumor effect shown by T/C percentage ([2]; 0.5 mg/kg): 124% |
| NCC1(N)CCCC1.O=C([O-])C(O)C(=O)[O-].[Pt+2] [compound 23, cis-2-Hydroxymalonato-1-amino-1-aminomethylcyclopentane platinum] |  |  |  |  | 5000 µg/mL |  |
| cis-Dichloro-1,2-diamino-2-ethylbutane platinum [compound 5] | 181% | 291% | 199% | 82% | > 2500 µg/mL | Antitumor effect shown by T/C percentage ([2]; 0.5 mg/kg): 135% |
| cis-Oxalato-1-amino-1-aminomethylcyclohexane platinum [compound 13] | 188% | 296% | 230% | 218% | > 2500 µg/mL | IC50 [4]: 0.021 µg/mL; Antitumor effect shown by T/C percentage ([2]; 0.5 mg/kg): 146% |
| cis-bis(Pyruvato)-1-amino-1-aminomethylcyclohexane platinum [compound 16] |  |  |  |  | > 2000 µg/mL |  |
